From the NIST ThermoML archive (doi:10.1021/je5001523)
Numbers after ± are expanded uncertainties.

Assay: mn = molality of the nth substance listed, in mol/kg
Details: 101 kPa, Liquid; for viscosity: Capillary tube (Ostwald / Ubbelohde) method

[Cl-].[Li+] [lithium chloride] + O
Details	mass density, 288.15 K [kg/m3]	mass density, 298.15 K [kg/m3]	mass density, 308.15 K [kg/m3]	mass density, 318.15 K [kg/m3]	viscosity, 288.15 K [mPa·s]	viscosity, 298.15 K [mPa·s]	viscosity, 308.15 K [mPa·s]	viscosity, 318.15 K [mPa·s]
m1 = 0.5	1012.05 ± 0.43	1009.46 ± 0.42	1006.13 ± 0.4	1002.07 ± 0.38	1.212 ± 0.008	0.94 ± 0.007	0.76 ± 0.006	0.629 ± 0.006
m1 = 1	1023.76 ± 0.48	1020.94 ± 0.47	–	1012.4 ± 0.43	1.288 ± 0.008	1.002 ± 0.007	0.802 ± 0.006	0.661 ± 0.006
m1 = 2	1045.1 ± 0.59	1041.17 ± 0.57	1036.24 ± 0.54	1031.32 ± 0.52	1.444 ± 0.009	1.112 ± 0.007	0.882 ± 0.006	0.724 ± 0.006
m1 = 3	1062.67 ± 0.67	1057.69 ± 0.65	1051.58 ± 0.62	1047.47 ± 0.6	1.586 ± 0.009	1.229 ± 0.008	0.962 ± 0.007	0.785 ± 0.006
